From publication PMC4786016 (Environmental science & technology, 2015)
Counter-ions that a name gives are not always drawn. Like-named read-outs stand apart in the source and are kept apart here.

Assays:
HEK293 cells = test: Alamar Blue cell viability assay; conditions: high doses
human PPARγ1 [1] = target: T1, human PPARγ1 (Homo sapiens, UniProt P37231)
human PPARγ1 [2] = target: T1, human PPARγ1; test: GeneBLAzer PPARγ1 non-DA reporter gene assay; conditions: for Emax: HEK293, read-out: ATVmax: maximal activation% of the tested compounds relative to rosiglitazone
PPARγ2 = conditions: PPARγ2, U2OS reporter assay; cited from earlier work
PPARγ = conditions: cited from earlier work
[3] = HEK293 PPARγ1 reporter, 15% of rosiglitazone maximal response
[4] = HEK293 PPARγ1 reporter, 20% of rosiglitazone maximal response

| Molecule | NOAEL (human PPARγ1 [1]) | ATVmax: maximal activation% of the tested compounds relative to rosiglitazone (human PPARγ1 [2]) | EC15 (concentration inducing 15% activation) (human PPARγ1 [2]) | [ATVmax]: concentration of the tested compounds to induce the maximal activation% (human PPARγ1 [2]) | efficacy (qualitative, based on ATVmax) (human PPARγ1 [2]) | EC20 (concentration inducing 20% activation) (human PPARγ1 [2]) | other results |
| --- | --- | --- | --- | --- | --- | --- | --- |
| monoisopropylated triaryl phosphates [mono-ITP] | 1.2 µM | 15% | 3.6 µM | 3.6 µM | + (key: + 7–20%; ++ 20–30%; +++ 30–40%; ++++ 40–50%; +++++ >50%) |  | cell viability (in words) (HEK293 cells): Highly reduced cell viability |
| Brc1ccc(Oc2ccc(Br)cc2Br)c(Br)c1 [BDE47, 2,2′,4,4′-tetrabromodiphenyl ether] | 0.8 µM |  | 5.2 µM | 7 µM | ++ (key: + 7–20%; ++ 20–30%; +++ 30–40%; ++++ 40–50%; +++++ >50%) | 7 µM | 5% induction concentration (PPARγ2): 10 µM; Emax (human PPARγ1 [2]): 20% |
| CCCCOC(=O)c1ccccc1C(=O)OCc1ccccc1 [BzBP, benzylbutyl phthalate] | 0.13 µM | 34% | 2.94 µM | 10 µM | +++ (key: + 7–20%; ++ 20–30%; +++ 30–40%; ++++ 40–50%; +++++ >50%) | 4.81 µM |  |
| CCCCC(CC)COC(=O)/C=C/C(=O)OCC(CC)CCCC (centres unmarked) [BEHF, bis(2-ethylhexyl) fumarate] |  |  |  |  |  |  | Emax (human PPARγ1 [2]): < 8%; PPARγ1 activation (in words) (human PPARγ1 [2]; reporter assay): did not display any obvious PPARγ1 activation |
| tri-isopropylated triaryl phosphates [Tri-ITP] | 1.2 µM | 41% | 5.7 µM | 33 µM | ++++ (key: + 7–20%; ++ 20–30%; +++ 30–40%; ++++ 40–50%; +++++ >50%) | 7.76 µM | concentration at which the compound began to activate PPARγ1 (human PPARγ1 [2]): 1.2 µM |
| CCCCC/C=C/C=C1/C(=O)C=C[C@@H]1C/C=C\CCCC(=O)O [15d-PJG2, 15-Deoxy-D12,14-prostaglandin J2 (endogenous ligands), reference compound] | 0.01 µM | 85% | 0.51 µM | 33 µM | +++++ (key: + 7–20%; ++ 20–30%; +++ 30–40%; ++++ 40–50%; +++++ >50%) | 0.74 µM | concentration at which the compound began to activate PPARγ1 (human PPARγ1 [2]): 0.01 µM |
| CCCCC(CC)COC(=O)c1c(Br)c(Br)c(Br)c(Br)c1C(=O)O (centres unmarked) [TBMEHP, mono-(2-ethyhexyl) tetrabromophthalate (metabolite)] | 0.13 µM | 40% | 0.53 µM | 3.3 µM | ++++ (key: + 7–20%; ++ 20–30%; +++ 30–40%; ++++ 40–50%; +++++ >50%) | 0.78 µM | cell viability (in words) (HEK293 cells): reduced viability at higher dosing levels |
| CCCCOC(=O)c1ccccc1C(=O)OCCCC [DBP, dibutyl phthalate] | 0.4 µM |  |  |  |  |  | Emax (human PPARγ1 [2]): 23%; [ATVmax]: concentration of the tested compounds to induce the maximal activation% (human PPARγ1 [2]; HEK293 PPARγ1 reporter): 33 µM; efficacy (qualitative, based on ATVmax) (human PPARγ1 [2]; HEK293 PPARγ1 reporter): ++ (++ 20–30%); EC15 (concentration inducing 15% activation) (human PPARγ1 [2]; [3]): 6.73 µM; EC20 (concentration inducing 20% activation) (human PPARγ1 [2]; [4]): 13.6 µM |
| CCCCC(CC)COC(=O)c1ccccc1C(=O)OCC(CC)CCCC (centres unmarked) [DEHP, bis(2-ethylhexyl) phthalate] |  |  |  |  |  |  | PPARγ1 activation (in words) (human PPARγ1 [2]; reporter assay): no activation was observed |
| CC(C)(c1cc(Cl)c(O)c(Cl)c1)c1cc(Cl)c(O)c(Cl)c1 [TCBPA, 3,5,3′,5′-tetrachlorobisphenol A] | 0.09 µM |  |  |  |  |  | [ATVmax]: concentration of the tested compounds to induce the maximal activation% (human PPARγ1 [2]; HEK293 PPARγ1 reporter): 7 µM; efficacy (qualitative, based on ATVmax) (human PPARγ1 [2]; HEK293 PPARγ1 reporter): +++++ (+++++ >50%); EC15 (concentration inducing 15% activation) (human PPARγ1 [2]; [3]): 0.23 µM; EC20 (concentration inducing 20% activation) (human PPARγ1 [2]; [4]): 0.47 µM; ATVmax: maximal activation% of the tested compounds relative to rosiglitazone (human PPARγ1 [2]; HEK293 PPARγ1 reporter, normalized to maximal response of rosiglitazone): 52% |
| CN(CCOc1ccc(CC2SC(=O)NC2=O)cc1)c1ccccn1 (centres unmarked) [Rosi., rosiglitazone (positive control), reference compound] |  |  |  |  |  |  | NOAEL (human PPARγ1 [2]; HEK293 PPARγ1 reporter, nonobservable adverse effect level): 0.00001 µM |
| Oc1c(Br)cc(Br)cc1Br [2,4,6-TBP, 2,4,6-tribrominated phenol] | 0.8 µM | 18% | 5.89 µM | 7 µM | + (key: + 7–20%; ++ 20–30%; +++ 30–40%; ++++ 40–50%; +++++ >50%) |  |  |
| tri(2-butoxyethanol) phosphate [TBOEP] |  | 13% |  | 11 µM | + (key: + 7–20%; ++ 20–30%; +++ 30–40%; ++++ 40–50%; +++++ >50%) |  | PPARγ binding potency (in words) (PPARγ): significant binding potential at the highest dose level tested |
| [Cl][Sn]([c]1ccccc1)([c]1ccccc1)[c]1ccccc1 [TPT, triphenyltin chloride] | 0.0003 µM | 54% | 0.004 µM | 0.33 µM | +++++ (key: + 7–20%; ++ 20–30%; +++ 30–40%; ++++ 40–50%; +++++ >50%) | 0.01 µM |  |
| isopropylated triaryl phosphates (mixture) [ITP] | 1.2 µM |  |  |  |  |  |  |
| c1ccc(OP(Oc2ccccc2)Oc2ccccc2)cc1 [TPPi, triphenyl phosphite] | 1.2 µM |  |  |  |  |  |  |
| Oc1cc(Cl)ccc1Oc1ccc(Cl)cc1Cl [TCS, triclosan] |  |  |  |  |  |  | PPARγ1 activation (in words) (human PPARγ1 [2]): did not initiate any activation of PPARγ1; Emax (human PPARγ1 [2]): < 8%; PPARγ binding potency (in words) (PPARγ): moderate binding potency |
| O=P(Oc1ccccc1)(Oc1ccccc1)Oc1ccccc1 [TPP, triphenyl phosphate] | 0.4 µM | 43% | 2.12 µM | 11 µM | ++++ (key: + 7–20%; ++ 20–30%; +++ 30–40%; ++++ 40–50%; +++++ >50%) | 3.27 µM | concentration at which the compound began to activate PPARγ1 (human PPARγ1 [2]): about 0.4 μM |
| CC(C)COC(=O)c1ccccc1C(=O)OCC(C)C [DiBP, diisobutyl phthalate] | 0.4 µM |  | 4.47 µM | 33 µM | ++ (key: + 7–20%; ++ 20–30%; +++ 30–40%; ++++ 40–50%; +++++ >50%) | 11.1 µM | Emax (human PPARγ1 [2]): 25% |
| di-isopropylated triaryl phosphates [Di-ITP] | 1.2 µM | 16% | 3.25 µM | 3.6 µM | + (key: + 7–20%; ++ 20–30%; +++ 30–40%; ++++ 40–50%; +++++ >50%) |  | cell viability (in words) (HEK293 cells): Highly reduced cell viability |
| Oc1c(I)cc(I)cc1I [2,4,6-TIP, 2,4,6-triiodinated phenol] | 0.4 µM | 20% | 8.72 µM | 11 µM | ++ (key: + 7–20%; ++ 20–30%; +++ 30–40%; ++++ 40–50%; +++++ >50%) | 11 µM |  |
| tert-butyl phenyl diphenyl phosphate (mixture) [BPDP] | 0.4 µM |  |  |  |  |  |  |
| Oc1cc(Br)cc(Br)c1Oc1ccc(Br)cc1Br [6-OH-BDE47, 6-hydroxide-2,2′,4,4′-tetrabromodiphenyl ether (metabolite)] |  | <8% |  |  |  |  | PPARγ1 activation (in words) (human PPARγ1 [2]): no activation was observed |
| CC(C)(C)c1ccc(OP(=O)(Oc2ccc(C(C)(C)C)cc2)Oc2ccc(C(C)(C)C)cc2)cc1 [TBPP, tris (4,tert-butyl-phenyl) phosphate] | 0.4 µM | 12% |  | 11 µM | + (key: + 7–20%; ++ 20–30%; +++ 30–40%; ++++ 40–50%; +++++ >50%) |  |  |
| Firemaster 550 (mixture) [FM550] | 1.2 µM |  |  |  |  |  |  |
| Oc1c(Br)ccc(Oc2ccc(Br)cc2Br)c1Br [3-OH-BDE47, 3-hydroxide-2,2′,4,4′-tetrabromodiphenyl ether (metabolite)] | 0.8 µM | 42% | 2.01 µM | 7 µM | ++++ (key: + 7–20%; ++ 20–30%; +++ 30–40%; ++++ 40–50%; +++++ >50%) | 2.993 µM | concentration at which the compound began to activate PPARγ1 (human PPARγ1 [2]): 0.8 µM; PPARγ binding potency (in words) (PPARγ): comparable binding potency to rosiglitazone |
| O=C(O)c1cc(Br)c(Br)c(Br)c1Br [TBBA, 2,3,4,5-tetrabromobenzoic acid (metabolite)] | 1.2 µM | 20% | 8.16 µM |  | ++ (key: + 7–20%; ++ 20–30%; +++ 30–40%; ++++ 40–50%; +++++ >50%) | 33 µM |  |
